# Tested on: Kras-Ink4a mice that spontaneously develop pancreatic tumors
# Assay: Survival of Kras-Ink4a mice, genetically modified model of pancreatic cancer
# Type: in vivo, mouse
# Details: i.p., 50 mg/kg
# Experimental: Finally, the antitumor activity of Gem-DHA was also evaluated in a genetically modified mouse model of pancreatic cancer. Female Kras-Ink4a mice that spontaneously develop pancreatic tumors were obtained from Dr. Stephen Hursting's lab at the University of Texas at Austin (Lashinger L et al. Cancer Prevention Research. 2013, 6(10), 1046-1055). […] On the 20th week, one group of mice (n=5) started to receive Gem-DHA (50 mg/kg, in Tween 80/ethanol/water solution with 5% (w/v) of mannitol) by i.p. injection. The injection was repeated twice a week, once a week for the last 5 doses, for a total of 29 times. As a control, another group of mice (n=6) were left untreated. […] Shown in FIG. 15 are the survival curves of mice treated with Gem-DHA or left untreated. […] The median survival time of mice that were treated with Gem-DHA was 280 days, in comparison to 172 days for mice that were left untreated (p=0.01, Log-rank (Mantel-Cox) test).
smiles,measurement,setting,value
"CC/C=C\C/C=C\C/C=C\C/C=C\C/C=C\C/C=C\CCC(=O)Nc1ccn(C2OC(CO)C(O)C2(F)F)c(=O)n1 (centres unmarked) [Gem-DHA, 4-(N)-Docosahexaenoyl Difluorodeoxycytidine]",Median survival time,"29 injections from week 20, untreated 172 days, p=0.01",280 days
same,Survival of the mice,versus untreated,significantly prolonged the survival

# From patent US11883423B2, “Nucleobase analogue derivatives and their applications” (BOARD OF REGENTS, THE UNIVERSITY OF TEXAS SYSTEM, priority 2014, dated 2024)
